The text below walks through data of patent US6369294B1, “Methods comprising apoptosis inhibitors for the generation of transgenic pigs” (Texas A&M University System, priority 1996, dated 2002).

“And” between values parts separate entries of the source, which are not always exact repeats. Equal entries are not always repeated.

The subject of test [1] is porcine primordial germ cells. Nature of the test: Isolation of porcine primordial germ cells with bFGF. Format: cell-based. Here is the method:
(§1) STO feeder cells were plated in PES media alone for 48 hours or in PES media containing 40 ng/ml bFGF for the same period of time. […] It is not presently known whether bFGF is acting directly on the proliferation rate of the PGCs or whether the effect is through a change in the physiology of the STO cells which then effects the PGCs.
Thirdly, when low density feeders are used to culture porcine PGCs, very few colonies grow and the few that do grow are always in direct contact with the feeder cells. No colonies grow on the plastic, even if surrounded by STO cells. Thus it is unlikely that the STO's are producing a soluble factor. Additionally, to isolate porcine PGC-derived cells, it is an absolute requirement that bFGF be added to the feeders. The bFGF drastically changes the morphology of the feeder cells. Thus the bFGF may be acting on the feeder to promote/inhibit production of a matrix component versus acting directly on the PGC cells. Also, very few colonies are obtained when plating porcine PGCs on feeders made within 6 hours. However, feeders made 24 hours prior to plating yield much better results. Thus this period of time may be required for synthesis and secretion of some matrix component.

In test [2] the test system is STO feeder cells. Nature of the test: STO feeder cells plated with or without bFGF, morphology. To be noted: PES media containing 40 ng/ml bFGF for 48 hours. It counts as cell-based, mouse. Here is the method: as §1
Test [3] relates to porcine ICM (pICM). Briefly: In vitro differentiation assay of cultured porcine inner cell mass, graded 1 to 5. It counts as cell-based. To be noted: for differentiation score on day two, study 2: scale 1 (fully undifferentiated) to 5 (fully differentiated), p<0.05. The source says: The inventors have developed a grading system to detect changes in the differentiation status of in vitro cultured PGC cells or the pICM. In the first study porcine ICMs (day 7) were isolated by immunosurgery and cultured 4 days in DMEM-based medium (D medium) or DMEM/Hams F-10 (1:1)-based medium (D/H medium) with or without human leukemia inhibitory factor (hLIF; 1000 μ/ml). For the second study pICMs were collected as above and cultured 4 days in one of six treatments: control medium, human leukemia inhibitory factor (hLIF; 1000 μ/ml), human interleukin-6 (hIL-6; 100 ng/ml), hIL-6+hIL-6 soluble receptor (hIL6+sR; 100 ng/ml+2.5 μg/ml), human oncostatin M (hOSM; 100 ng/ml), or rat ciliary neurotrophic factor (rCNTF; 100 ng/ml). All cytokines were prepared in Dulbecco's Modified Eagles Medium/Hams F-10 (1:1)-based medium. The colonies were photographed daily for morphological analysis.
pICMs were categorized into one of two types based on their morphological profile: type A, non-epithelial or type B, epithelial-like. The pICM differentiation was evaluated using standardized differentiation profiles. Each pICM series was graded on a scale of 1 (fully undifferentiated) to 5 (fully differentiated) for each time point. Differentiation was verified by alkaline phosphatase activity, cytokeratin staining, and scanning electron microscopy. […] Furthermore, addition of rCNTF gave the lowest overall mean differentiation score (2.53±0.15). […] The grading system employed was thus an effective tool for detecting treatment effects on differentiation of the developing pICM.

For test [4], the system named is cultured PGCs. Briefly: Passage of cultured PGCs in presence or absence of α2-macroglobulin, alkaline phosphatase positive colonies. Format: cell-based. The source says:
The effect of α2-macroglobulin on the ability to passage cells was also studied. To test the ability of α2-macroglobulin to protect against the losses normally observed when cultured PGCs are trypsinized, cells were passaged twice in the presence or absence of α2-macroglobulin, the colonies fixed, stained for alkaline phosphatase and the number of alkaline phosphatase positive colonies determined. PGCs were collected in PES and plated on feeder layers in the presence or absence of media containing 1 μg/ml α2-macroglobulin. Colonies were allowed to grow for 7 days, trypsinized as described above and plated again in media with or without α2-macroglobulin. Samples were done in duplicate and corrected for the number of added cells.

Test [5] relates to PGCs. Nature of the test: Effect of isolation procedure and α2-macroglobulin on PGCs developing into alkaline phosphatase positive colonies. Format: cell-based, pig. Conditions: α2-macroglobulin 1 μg/ml; for alkaline phosphatase positive colonies (replicates R1-R3): counted six days later. As for the experimental part:
Genital ridges from two day 25-27 pig fetuses were collected, divided into four groups (a 2×2 study), placed in PES media either with α2-macroglobulin at 1 μg/ml (2 groups) or without α2-macroglobulin (2 groups), and immediately either needle teased to allow colonies to seep out (2 groups) or macerated (2 groups) with the help of a syringe. Briefly, the ridges were broken into small pieces by pressing them against the bottom of a dish with the back of a syringe. The disrupted tissues were further broken up by passing them several times through a 20 gauge needle until all large tissue clumps had been disrupted. Following tissue disruption, samples were centrifuged for 3-5 minutes at 250×g to settle tissue fragments and supernatant containing mostly single cells collected and centrifuged at 1000×g for 5 min. The resulting pellet was resuspended in PES containing LIF, SCF, and bFGF with or without human α2-macroglobulin, cells counted, and plated in triplicate in feeder layers.
Six days later colonies were fixed, stained for alkaline phosphatase activity, and counted.

Test [6] has as its system PGC. Briefly: Optimal concentration of α2-macroglobulin: ratio of AP positive colonies to control samples. It counts as cell-based. To be noted: for ratio of AP positive colonies compared to control samples: three trials. Here is the method:
An additional study was performed to determine the optimal concentration of α2-macroglobulin. The ratio of AP positive colonies in samples containing either 1 μg/ml or 0.5 μg/ml as compared to control samples was determined for three trials. The ratios at 1 μg/ml were 0.81±0.37, 0.84±0.23 and 0.83±0.27, while at 0.5 μg/ml they were 1.98±0.36, 1.43±0.27 and 1.70±0.41.

Test [7] has as its system bovine PGC's. Nature of the test: Third passage bovine PGC colonies with or without α2-macroglobulin (preliminary study). Format: cell-based. The source says: The ability of colonies cultured and passaged in the presence or absence of α2-macroglobulin to survive in an undifferentiated state for multiple passages is currently being studied. In a preliminary study twice as many colonies were obtained from third passage bovine PGC's (22 versus 45) cultured in media with α2-macroglobulin than in media without the protease inhibitor. Moreover, the colonies appear on average 2-3 days earlier and are of larger size when cultured in the presence of α2-macroglobulin.

In test [8] the test system is PGC. Briefly: Addition of uteroferrin or uteroferrin rose to PGC culture media. Format: cell-based. As for the experimental part: The pellet, containing PGCs, was resuspended in PES media Following collection, the cells were rinsed 3 times by centrifugation and resuspended in PEG medium containing soluble recombinant human stem cells factor at 30 ng/ml, human basic fibroblast growth factor at 40 ng/ml, and LIF at 20 ng/ml and plated onto STO feeder layers. Additionally, the effect of the addition of 100 ng/ml of uteroferrin in the presence or absence of stem cell factor on the number of alkaline phosphatase positive colonies was determined.
In order to determine the beneficial effect provided by the serpin alone, a broad range protease inhibitor called α2-macroglobulin was studied (Feige et al., 1996).

The mark [9] stands for this setting: rCNTF 100 ng/ml, hLIF 1000 μ/ml.

For the molecule bFGF: basic fibroblast growth factor, the “requirement for the isolation of porcine primordial germ cells” value in test [1] was “essential component for the isolation of porcine primordial germ cells”. Moreover, in test [2], the “change in morphology of the feeder cells” value is recorded as “drastic change is seen in the morphology of the feeder cells”.

For hLIF: human leukemia inhibitory factor, in test [3] (hLIF 1000 μ/ml, D or D/H medium, 4 days, p=0.08), the “delay of differentiation of the developing pICM, study 1” value was “neither hLIF nor culture medium delayed differentiation”. Further, in test [3] (setting [9]), the “differentiation score on day two, study 2” value was 2.70±0.16.

Regarding “α2-macroglobulin: broad range protease inhibitor; apoptosis inhibitor added to PGC culture media at 1 μg/ml”, the “Normalized value” in test [4] (1st passage +, 2nd passage +) is reported as 2052 colonies per 1000 colonies plated; in test [4] (1st passage +, 2nd passage −), 1512 colonies per 1000 colonies plated; in test [4] (1st passage −, 2nd passage +), 1422 colonies per 1000 colonies plated; in test [4] (first passage, media with 1 μg/ml α2-macroglobulin) it was 22028 colonies per million cells; in test [5] (pig 1, macerate), 16395 colonies per million cells; in test [5] (pig 1, teasing), 18087 colonies per million cells. Also, the Normalized value in test [5] (pig 2, macerate) was 35865 colonies per million cells; in test [5] (pig 2, teasing), 37380 colonies per million cells. Besides, the “alkaline phosphatase positive colonies (replicates R1-R3)” value in test [5] (pig 1, macerate) was 4712 and 5176 and 4368; in test [5] (pig 1, teasing), 4688 and 4960 and 5424; in test [5] (pig 2, macerate), 8312 and 7872 and 8896; in test [5] (pig 2, teasing), 6200 and 6008 and 6864. The “factor by which the lower dose is more effective in generating AP positive colonies” value in test [6] (0.5 μg/ml versus 1 μg/ml) is listed as around 2. For the same molecule, the “ratio of AP positive colonies compared to control samples” value is 1.98±0.36 and 1.43±0.27 and 1.70±0.41 in test [6] (α2-macroglobulin 0.5 μg/ml); 0.81±0.37 and 0.84±0.23 and 0.83±0.27 in test [6] (α2-macroglobulin 1 μg/ml). Also, the “number of colonies from third passage bovine PGC's” value in test [7] (media with α2-macroglobulin, 22 without) came out at 45. Further, the “colonies appear earlier than without α2-macroglobulin” value in test [7] (on average) is 2 to 3 days.

B1: uteroferrin: purple colored, progesterone-induced iron-containing glycoprotein secreted by uterine endometrial epithelium of pigs (protein, UniProt P09889 21-340, looked up)
Tartrate-resistant acid …: GTRTNTRTAPTPILRFVAVGDWGGVPNAPFHTAREMANAKAIATTVKTLGADFILSLGDNFYFTGVHDAKDKRFQETFEDVFSDPSLRNVPWHVLAGNHDHLGNVSAQIAYSKISKRWNFPSPYYRLRFKIPRSNVSVAIFMLDTVTLCGNSDDFVSQQPERPRNLALARTQLAWIKKQLAAAKEDYVLVAGHYPVWSIAEHGPTHCLVKQLLPLLTTHKVTAYLCGHDHNLQYLQDENGLGFVLSGAGNFMDPSKKHLRKVPNGYLRFHFGAENSLGGFAYVEITPKEMSVTYIEASGKSLFKTKLPRRARSEHQHRRA
Turning to B1, the “effect on the number of resulting PGC colonies” value in test [8] is given as “some improvement”.

B2: rCNTF: rat ciliary neurotrophic factor (protein, UniProt P20294 1-200, looked up)
Ciliary neurotrophic factor: MAFAEQTPLTLHRRDLCSRSIWLARKIRSDLTALMESYVKHQGLNKNINLDSVDGVPVASTDRWSEMTEAERLQENLQAYRTFQGMLTKLLEDQRVHFTPTEGDFHQAIHTLMLQVSAFAYQLEELMVLLEQKIPENEADGMPATVGDGGLFEKKLWGLKVLQELSQWTVRSIHDLRVISSHQMGISALESHYGAKDKQM
For B2, in test [3] (setting [9]), the “differentiation score on day two, study 2” value worked out at 2.07±0.15. For the same molecule, in test [3] (scale 1 to 5, 4 day culture, rCNTF 100 ng/ml), the “overall mean differentiation score, study 2” value is recorded as 2.53±0.15.
